Test results published in patent publication US12329774B2, “Method and composition for enhancing the quality and benefits of sleep” (priority 2020, dated 2025).
In brackets after ≈: the same amount, converted by molar mass. Entries after “also recorded” stand apart in the source; their conditions may differ.

Tests used:
[1] = tested on: pentobarbital-induced sleep; test: Pentobarbital-induced sleep test mouse model; format: in vivo, mice; details: for Duration of sleep / Sleep latency period: pentobarbital 42 mg/kg, test article 20 mg theanine/kg per os 45 min before
Experimental: Subsequently, pentobarbital was administered intraperitoneally to induce a hypnotic state that promoted sleep. The effects on sleep of the test agents were monitored.
Pentobarbital-induced sleep was performed according to published methods with slight modifications. Mice were fasted for 24 h prior to the experiment. Each test article was dissolved or suspended in physiological saline and then was administered per os. The groups were administered doses of 20 mg/kg theanine, Mg-theanate #1 (20 mg theanine/kg), and Mg-theanate #2 (20 mg theanine/kg), respectively. Forty-five minutes later, a hypnotic dose of pentobarbital (42 mg/kg) was injected into the left side of the abdomen. After injection, the mice were placed in individual cages and subjected to measurements of sleep latency and duration. Sleep latency was defined as the period between pentobarbital injection and the loss of righting reflex (sleep onset), and sleep duration denoted the time elapsed between loss of the righting reflex and recovery.
Statistical Analyses—Data are shown as mean±SEM. Sample size was calculated based on a power of 85% and a p-value of 0.05. Given that assumption, a sample size of seven per treatment was calculated. The data were analyzed using the GLM procedure of SAS (SAS Institute: SAS User's Guide: Statistics). The treatments were compared using ANOVA and Student's unpaired t-test; P<0.05 was considered statistically significant.

[2] = tested on: GABAA-R2, GABAB-R1, GABAB-R2, 5-HT1A, GluA1, GluN1, GluN2A; test: Western blot of GABA and other neurotransmitter receptors in caffeine-induced wakefulness mice; details: caffeine-induced wake mouse; result in words; listed as magnesium di-L-theanate compositions
[3] = Solubility in water; format: physicochemical
[4] = tested on: brain serotonin, dopamine and melatonin; test: Brain neurotransmitter levels by ELISA in caffeine-induced wakefulness mice; format: in vivo; details: caffeine-induced wake mouse, result in words
[5] = tested on: MDA, SOD, CAT, GSHPx; test: Brain antioxidant status in caffeine-induced wakefulness mice; format: in vivo; details: caffeine-induced wake mouse, result in words
Experimental: Animals were anesthetized with urethane ([…], i.p., Sigma U2500). Body temperature was maintained between 36.5 and 37° C. with homeothermic blanket. Mice were stabilized under a stereotaxic frame (World Precision Instruments, Berlin; Germany) and an incision was made on the skin along the anterior/posterior line of the skull. The left […] was removed gently with a dental drill (Marothon-3; Korea). Two Ag-AgCl sphere electrodes were placed over the left hemisphere with the reference electrode attached on the pinna. […] Brains were rapidly removed, frozen on dry ice and stored at -80° C. until analyses could be performed. Biochemical and Oxidative Stress Markers-Serum melatonin, serotonin, and dopamine were measured using ELISA kits. Brain levels of malondialdehyde (MDA) were measured by HPLC. Brain activities of superoxide dismutase (SOD), catalase (CAT) and glutathione peroxidase (GSHPx) were measured using ELISA kits for each analyte.

[6] = tested on: brain waves (spike amplitude / spike frequency); test: Electrocorticography (ECoG) of brain electrical activity in caffeine-induced wakefulness mice; format: in vivo; details: caffeine-induced wake mouse, electrical activity over 120 minutes, result in words
Experimental: Animals were anesthetized with urethane ([…], i.p., Sigma U2500). Body temperature was maintained between 36.5 and 37° C. with homeothermic blanket. Mice were stabilized under a stereotaxic frame (World Precision Instruments, Berlin; Germany) and an incision was made on the skin along the anterior/posterior line of the skull. The left […] was removed gently with a dental drill (Marothon-3; Korea). Two Ag—AgCl sphere electrodes were placed over the left hemisphere with the reference electrode attached on the pinna.
Brains were rapidly removed, frozen on dry ice and stored at −80° C. until analyses could be performed.

[7] = Storage stability; format: physicochemical; details: temperature range, low relative humidity; result in words; listed as Magnesium di-L-theanate compositions
[8] = tested on: Bax, Bcl-2, Caspase-3, eNOS, iNOS; test: Western blot of brain cell survival indicators in caffeine-induced wakefulness mice; details: caffeine-induced wake mouse; result in words; listed as magnesium di-L-theanate
[9] = tested on: caffeine-induced wakefulness mice; test: Caffeine-induced wakefulness mouse model: sleep latency, sleep duration, number falling asleep; format: in vivo
Experimental: Animals and Experimental design: Seven male BALB/c mice per treatment arm (age: 8 weeks, weight: […]) were housed in a controlled environment with a 12:12-h light-dark cycle at 22° C. and were provided with mice chow and water ad libitum. All experiments were conducted under the National Institutes of Health's Guidelines for the Care and Use of Laboratory Animals and approved by the Ethics Committee of the Medipol University.
Drugs and materials: Study product was provided by Nutrition21 LLC (Mg-Theanate #1=lot AA209-122-20, Mg-Theanate #2=lot BLS-DN 13). […] The concentration of each drug solution was adjusted so that the volume injected was constant at 1.0 ml/kg BW. All drug solutions were prepared fresh daily, and were administered intraperitoneally (i.p.). […]

[10] = Observations after administration in the animal studies of Example 5 (absorption, side effects); format: in vivo, mice
From the text: Neither component in magnesium […] compositions of the invention (i.e., magnesium or L-theanine) has been reported to cause addiction.

[11] = result in words, listed as magnesium di-L-theanate composition
[12] = result in words, listed as magnesium di-L-theanate compositions
[13] = listed as magnesium di-L-theanate compositions
[14] = caffeine-induced awake mouse model, result in words
[15] = caffeine-induced wake mouse, caffeine alone or + test article (20 mg theanine/kg)

CCNC(=O)CCC(N)C(=O)O [Mg Theanate Composition, magnesium di-L-theanate]
Animals that fell asleep (10-minute period following pentobarbital administration) ([1]; 20 mg theanine/kg per os): over 50% | Likelihood to fall asleep within the 10 minute limit as compared to theanine ([1]; 20 mg theanine/kg per os, result in words): significantly more likely to fall asleep | Duration of sleep [1, 11]: significantly increased | Sleep latency period [1, 11]: significantly reduced | Duration of sleep [1, 12]: significantly and more effectively increased | Sleep latency period [1, 12]: significantly and more effectively decreased | GABA and other neurotransmitter receptors (receptor levels) [2]: significant diminution in the caffeine-related reduction | solubility [3]: ~650 mg/mL (≈ 3730 mM) | Neurotransmitter levels (brain serotonin, dopamine, and melatonin) [4]: animals, levels of all three neurotransmitters were more significantly restored to control | Neurotransmitter levels (brain serotonin, dopamine, and melatonin) [4, 13]: significant restoration | Levels of protective enzymes (SOD, CAT, GSHPx) [5]: protective enzymes were decreased, the adverse changes were not as great as those shown by | Level of MDA (indicator of oxidative stress) [5, 13]: decrease in oxidative stress | Levels of protective enzymes (SOD, CAT, GSHPx) [5, 13]: restoration of brain anti-oxidant status | Amplitude of brain waves [6]: increased significantly and was maintained throughout the 120 minute study period. Spike | Spike frequency of electrical activity in the brain [6]: frequency was significantly reduced and comparable to caffeine/theanine-treated animals. | Amplitude of brain waves [6, 13]: significant increase | Spike frequency of electrical activity in the brain [6, 13]: significant reduction | Storage stability [7]: stable during storage under conditions having temperatures ranging from −80 °C to +120 °C at low relative humidity; also recorded: greatest at temperatures from −80 °C to +60 °C at low relative humidity | Brain cell survival (Bax, Bcl-2, Caspase-3, eNOS, and iNOS, indicators of cell damage) [8]: significant normalization | Time after administration at which beneficial enhancement of sleep properties was exhibited ([9]; as early as): about 30 minutes | Number of animals falling asleep as compared to L-theanine-treated animals [9, 14]: significant increase | Sleep duration as compared to L-theanine itself [9, 14]: significant lengthening and normalization | Sleep latency period as compared to L-theanine itself [9, 14]: significant decrease | Number of animals falling asleep (share of the group that fell asleep) [9, 15]: + Mg Theanate Composition: 70% of the group fell asleep | Sleep duration period [9, 15]: + Mg Theanate Composition: The sleep duration period of about 50 minutes was greatly | Sleep latency period [9, 15]: slightly more than 1 minute, a significantly shorter period than found in caffeine-treated minutes | Adverse effects on activities during or immediately after wakefulness [10]: No adverse effects were observed | Side effects during or after treatment [10]: No side effects were observed | Absorption and distribution following administration ([10]; result in words): rapidly absorbed and distributed to the brain
